The values that follow come from publication PMC8092108, “Mycophenolate suppresses inflammation by inhibiting prostaglandin synthases: a study of molecular and experimental drug repurposing” (PeerJ, 2021).

Structures are written as SMILES. Like-named read-outs stand apart in the source and are kept apart here.

One data set addresses T1, COX-2 (Homo sapiens, UniProt P35354).
T1 construct: purchased
T1 sequence (P35354 18-604): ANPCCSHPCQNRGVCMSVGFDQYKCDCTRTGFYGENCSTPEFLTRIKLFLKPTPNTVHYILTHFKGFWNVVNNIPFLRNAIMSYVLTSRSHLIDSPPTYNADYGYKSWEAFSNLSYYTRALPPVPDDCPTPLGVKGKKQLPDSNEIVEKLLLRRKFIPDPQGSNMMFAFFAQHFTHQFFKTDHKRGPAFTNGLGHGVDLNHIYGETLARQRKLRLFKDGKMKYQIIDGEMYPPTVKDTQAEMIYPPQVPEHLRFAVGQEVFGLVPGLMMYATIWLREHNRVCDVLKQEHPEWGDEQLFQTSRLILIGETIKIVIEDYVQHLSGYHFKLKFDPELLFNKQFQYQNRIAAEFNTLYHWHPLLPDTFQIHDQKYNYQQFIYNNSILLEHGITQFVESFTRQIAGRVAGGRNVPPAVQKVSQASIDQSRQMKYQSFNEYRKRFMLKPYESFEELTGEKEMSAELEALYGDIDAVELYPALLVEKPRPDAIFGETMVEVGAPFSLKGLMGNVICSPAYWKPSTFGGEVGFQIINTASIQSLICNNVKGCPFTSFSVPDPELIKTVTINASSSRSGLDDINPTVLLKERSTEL
As to the kind of experiment: COX inhibitor screening assay, COX-2. Format: biochemical. How it is done: (§1) The inhibitory effects of the drugs MMF and MPA on COX-1 and COX-2 were measured using the COX inhibitor screening assay kit and LOX inhibitor screening kit. […] Briefly, the reaction buffer (Tris–HCl buffer, pH 8.0) containing 5 mM EDTA, 2 mM phenol, and 1 µM hematin was measured into test tubes. The test drugs were dissolved in dimethyl sulfoxide and added to the tubes to final concentrations of […]. COX-1 or COX-2 was added to the test tubes and preincubated for 10 min at 37 °C. Arachidonic acid was then added, and the tubes were incubated for 2 min at 37 °C. The enzyme immunoassay was used to measure the concentration of the product prostaglandin F2α (PGF2α). The estimated values were determined after comparison to the predetermined standard curve. The IC50 was determined after three different experiments. The selectivity index was calculated from Eq. (1):
(§2) (1) Selectivity index=IC50COX−1/IC50COX−2

The next data set concerns 12-LOX. Briefly: LOX inhibitor screening kit. Format: biochemical. The method, then: The inhibitory effects of the drugs MMF and MPA on COX-1 and COX-2 were measured using the COX inhibitor screening assay kit and LOX inhibitor screening kit. The assay was performed according to the manufacturer’s directions and previously described methods ([Chowdhury et al., 2008]; [Lee et al., 2004]). Briefly, the reaction buffer (Tris–HCl buffer, pH 8.0) containing 5 mM EDTA, 2 mM phenol, and 1 µM hematin was measured into test tubes. The test drugs were dissolved in dimethyl sulfoxide and added to the tubes to final concentrations of […]. COX-1 or COX-2 was added to the test tubes and preincubated for 10 min at 37 °C. Arachidonic acid was then added, and the tubes were incubated for 2 min at 37 °C. The enzyme immunoassay was used to measure the concentration of the product prostaglandin F2α (PGF2α). The estimated values were determined after comparison to the predetermined standard curve. The IC50 was determined after three different experiments. The selectivity index was calculated from Eq. (1): […]

In the next data set the target is T2, COX-1 (Ovis aries, UniProt P05979).
T2 construct: purchased
T2 sequence (P05979 25-600): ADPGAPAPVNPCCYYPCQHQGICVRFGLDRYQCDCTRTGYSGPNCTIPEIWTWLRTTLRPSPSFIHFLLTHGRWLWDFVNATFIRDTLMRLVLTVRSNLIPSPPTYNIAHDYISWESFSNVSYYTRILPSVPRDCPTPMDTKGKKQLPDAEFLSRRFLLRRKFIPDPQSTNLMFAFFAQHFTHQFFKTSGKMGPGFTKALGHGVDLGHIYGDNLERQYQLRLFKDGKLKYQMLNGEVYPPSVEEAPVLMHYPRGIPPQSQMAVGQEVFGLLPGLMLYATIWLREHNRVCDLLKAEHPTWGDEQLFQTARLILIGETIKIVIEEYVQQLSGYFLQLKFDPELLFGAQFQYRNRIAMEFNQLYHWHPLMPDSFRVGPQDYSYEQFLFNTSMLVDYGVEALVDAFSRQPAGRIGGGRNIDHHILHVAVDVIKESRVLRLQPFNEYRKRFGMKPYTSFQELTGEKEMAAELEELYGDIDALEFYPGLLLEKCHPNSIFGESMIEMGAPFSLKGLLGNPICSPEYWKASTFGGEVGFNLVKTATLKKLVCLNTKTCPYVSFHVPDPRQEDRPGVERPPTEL
Briefly: COX inhibitor screening assay, COX-1. Format: biochemical. How it is done:
as §1, §2

The conditions of data set [1]: cited from earlier work.

Turning to `COc1c(C)c2c(c(O)c1C/C=C(\C)CCC(=O)OCCN1CCOCC1)C(=O)OC2` [Mycophenolate mofetil], the IC50 at COX-2 worked out at 0.19 µM; in the data set with 12-LOX (printed as 5-LOX in abstract and b38, read-out: IC50 5-LOX), 4.47 µM; in the data set on 12-LOX (read-out: IC50 12-LOX) it was 4.47 µM; against COX-1, 5.53 µM. The “Maximal serum concentration (Cmax)” value in data set [1] (after 1–2 g oral doses, ref Ferreira et al., 2020) was 18000 to 20000 ng/mL. Besides, in data set [1] (after oral intake, ref Lamba et al., 2014), the “Conversion to MPA by liver carboxylesterases 1 and 2” value is “completely converted to MPA”.

The IC50 is the midpoint of a concentration-inhibition curve.
